How the values were obtained:
[1] = tested on: CTX-induced sarcopenia mouse model; assay: Rota Rod balance ability in CTX-induced sarcopenia mouse model; type: in vivo; conditions: oral 50, 100, 500 mg/kg once/day 10 days; days 4, 9, 14; vs (+)PBS group
Experimental: (§1) Specifically, the Rota Rod was measured before CTX injection, and after CTX was injected (day 0), the drug was orally administered once/day for 10 days, and on days 4, 9, and 14, the Rota Rod was measured, respectively.

[2] = tested on: CTX-induced sarcopenia mouse model; assay: Muscle recovery by muscle type (myosin I, IIa, IIb antibody staining) in CTX-induced sarcopenia mouse model; type: in vivo; conditions: 4 μM oral
Experimental: (§2) In order to construct a CTX-induced sarcopenia mouse model, cardiotoxin (LATOXAN, Portes-les-Valence, France) was dissolved at 1 mg/ml in PBS to make a high-concentration stock solution. To apply to the mice, the stock solution was diluted again in PBS at a final concentration of 0.03 mg/ml and used, and intramuscularly injected into both thigh muscles of the mouse using a 1 ml syringe (24 G) to construct a sarcopenia mouse model.

[3] = tested on: C57BL/6J mice; assay: Single oral dose toxicity: liver pathology by H&E staining; type: in vivo, mouse; conditions: single oral 100, 500, 1000 mg/kg; male and female; day 14
Experimental: As in Example 7-1, mice with single oral administration were dissected on day 14 after administration, and histochemical toxicity was evaluated. The pathology of the liver was observed through H&E staining on the dissected liver tissue.

[4] = tested on: C57BL/6J mice; assay: Single oral dose toxicity: tissue weights at autopsy; type: in vivo, mouse; conditions: single oral 100, 500, 1000 mg/kg; male and female; day 14
Experimental: The body weights were measured before administration, and on 1 day, 3 days, 7 days, and 14 days after administration, and an autopsy was performed on day 14.
In the present disclosure, a single oral dose toxicity test refers to a test that qualitatively and quantitatively examines toxicity in a short period of time when a test substance was administered to test animals in a single dose (including divided doses within 24 hours).

[5] = tested on: C2C12-PHF20/YY1-promoter-GFP cell line; assay: HTS system: GFP (green luminescence) in PHF20-overexpressing myoblasts carrying YY1 promoter-GFP; type: cell-based, mouse; conditions: 1 nM, 10 nM, 100 nM, 1 μM or 10 μM
Description: C2C12 myoblasts, which were stable cells in which PHF20 was overexpressed, were transformed with a plasmid coexisting with a YY1 promoter and GFP, which inhibited muscle differentiation, to prepare a stable cell line. The degree of GFP signal suppression was quantified and measured, and the degree of muscle differentiation was used as a quantitative measurement index (FIG. 1).
Specifically, the C2C12-PHF20/YY1-promoter-GFP cell line according to Example 1 was dispensed in a 96-well plate at 0.5×10^5, cultured for 24 hours, and cells in a 70% confluent state were treated with 250 ng/ml of doxycycline for 24 hours, and then treated with each compound at a final concentration of 10 μM.
For fluorescence intensity, C2C12-PHF20/YY1-promoter-GFP cells were dispensed at 4×10^5 in a 6-well culture plate and cultured for 24 hours. […] Thereafter, the degree of green luminescence was confirmed using GloMax microplate readers explorer (Promega, Madison, Wisconsin, USA).

[6] = tested on: CTX-induced sarcopenia mouse model; assay: Muscle regeneration by H&E staining in CTX-induced sarcopenia mouse model; type: in vivo; conditions: 4 μM oral, 24 h after CTX; tissue on days 3, 6, 10; vs non-administered control
Experimental: as §2
Specifically, for mouse muscle tissue immunostaining, the muscle tissues of a comparative group and a sulfamethazine-treated group were fixed in 4% paraformaldehyde, washed, and fixed in paraffin. Tissues were cut to a thickness of about […], fixed to a slide, and then stained using an antibody for each muscle type.

[7] = Body weight in CTX-induced sarcopenia mouse model; type: in vivo; conditions: oral 50, 100, 500 mg/kg once/day 10 days, 14 days, except decrease in all groups on day 10 without diet supply
Experimental: as §1
For a total of 14 days, the body weights of the mice were measured, and any change in body weight was confirmed.
(§3) Specifically, the grip strength was measured before CTX injection, and after CTX was injected (day 0), the drug was orally administered once/day for 10 days, and on days 4, 9, and 14, the grip strength was measured, respectively.

[8] = tested on: C57BL/6J mice; assay: Single oral dose toxicity: blood liver, heart and kidney toxicity markers; conditions: single oral 100, 500, 1000 mg/kg; male and female; serum day 14
Experimental: 7-week-old male and female C57BL/6J mice with the body weight of 20±3 g were obtained from DooYeol Biotech (Seoul, South Korea). The mice were bred under constant room temperature and 12 h night/day cycle for 1 week before the experiment, and the mice were fed with a standard rodent diet and were freely taken with water.
The collected blood was left at room temperature for 1 hour to be coagulated, and the serum was isolated by operating a centrifuge (13,000 rpm) for 20 minutes. Blood analysis was performed by dividing liver toxicity, heart toxicity, and kidney toxicity, and the analysis was conducted by requesting DooYeol Biotech (Seoul, Korea).

[9] = tested on: CTX-induced sarcopenia mouse model; assay: Grip strength recovery in CTX-induced sarcopenia mouse model; type: in vivo; conditions: oral 50, 100, 500 mg/kg once/day 10 days, days 4, 9, 14
Experimental: as §3

Substance: sulfamethazine
- balance ability of the Rota Rod [1]: the higher the dose of sulfamethazine, the higher the balance ability of the Rota Rod
- expression of myosin I ([2]; day 6): expression of blue-stained myosin I was increased
- muscle image by myosin type staining ([2]; day 10): recovered similarly to that of a normal control group on day 0
- expression of myosin IIa and myosin IIb ([2]; vs control group): increase in expressions of green myosin IIa and red myosin IIb
- liver pathology (H&E) [3]: no specific pathological findings were observed
- tissue weight [4]: no singularity in tissue weight
- intensity of green fluorescence by concentration [5]: the higher the treated concentration of sulfamethazine, the weaker the intensity of fluorescence
- degree of muscle differentiation / regeneration by H&E staining [6]: the muscle was regenerated compared to the control group
- body weight ([7]; Rota Rod study): no change in body weight was observed
- body weight ([7]; grip strength study): no change in body weight was observed
- blood liver toxicity, heart toxicity and kidney toxicity markers [8]: no specific phenomena related to liver toxicity, heart toxicity, and kidney toxicity
- grip strength, all four paws [9]: grip strength was increased in a sulfamethazine concentration-dependent manner
- grip strength, hind legs (2 paws) ([9]; vs (+)PBS group): grip strength of mice increased as the dose of sulfamethazine increased
